In patent US9636418B2 (priority 2013, dated 2017) one finds IC50 and Nav1.4/Nav1.7 data, which are given here for eight molecules.

Each structure is given as a SMILES string. Values joined by “and” are separate entries in the source; they are usually repeats but may differ in a detail not shown here. Equal values may be shown once. Read-outs that look alike come from different tables or passages of the source.

What all share (assay): cell-based
The target in assay [1] is hNav1.3 (Homo sapiens, UniProt Q9NY46). The following applies: IonWorks Quattro; read-out: IC50 Nav1.3. (Patch clamp records ionic current or voltage across a cell membrane.)
Assay [2] deals with T1, hNav1.5 (Homo sapiens, UniProt Q14524). The following applies: IonWorks Quattro; read-out: IC50 Nav1.5.
Assay [3] has as its target T2, hNav1.4 (Homo sapiens, UniProt P35499). The following applies: for IC50: IonWorks Quattro, read-out: IC50 Nav1.4; for Nav1.4/Nav1.7: ratio of IonWorks Quattro IC50 values.
In assay [4] the target is T3, hNav1.7 (Homo sapiens, UniProt Q15858). The following applies: IonWorks Quattro; read-out: IC50 Nav1.7.
The target of assay [5] is T3, hNav1.7. In kind it is cell-based. The note with it: PatchXpress; * = at high concentrations compound would wash off slowly or not at all; read-out: PX hNav1.7 Tonic IC50.
The target of assay [6] is T1, hNav1.5. The note with it: PatchXpress; * = at high concentrations compound would wash off slowly or not at all; read-out: PX hNav1.5 Tonic IC50.
For assay [7], the target named is T2, hNav1.4. The following applies: for IC50: PatchXpress, * = at high concentrations compound would wash off slowly or not at all, read-out: PX hNav1.4 Tonic IC50; for Nav1.4/Nav1.7: ratio of PX IC50 values.

T2 sequence (P35499 whole entry): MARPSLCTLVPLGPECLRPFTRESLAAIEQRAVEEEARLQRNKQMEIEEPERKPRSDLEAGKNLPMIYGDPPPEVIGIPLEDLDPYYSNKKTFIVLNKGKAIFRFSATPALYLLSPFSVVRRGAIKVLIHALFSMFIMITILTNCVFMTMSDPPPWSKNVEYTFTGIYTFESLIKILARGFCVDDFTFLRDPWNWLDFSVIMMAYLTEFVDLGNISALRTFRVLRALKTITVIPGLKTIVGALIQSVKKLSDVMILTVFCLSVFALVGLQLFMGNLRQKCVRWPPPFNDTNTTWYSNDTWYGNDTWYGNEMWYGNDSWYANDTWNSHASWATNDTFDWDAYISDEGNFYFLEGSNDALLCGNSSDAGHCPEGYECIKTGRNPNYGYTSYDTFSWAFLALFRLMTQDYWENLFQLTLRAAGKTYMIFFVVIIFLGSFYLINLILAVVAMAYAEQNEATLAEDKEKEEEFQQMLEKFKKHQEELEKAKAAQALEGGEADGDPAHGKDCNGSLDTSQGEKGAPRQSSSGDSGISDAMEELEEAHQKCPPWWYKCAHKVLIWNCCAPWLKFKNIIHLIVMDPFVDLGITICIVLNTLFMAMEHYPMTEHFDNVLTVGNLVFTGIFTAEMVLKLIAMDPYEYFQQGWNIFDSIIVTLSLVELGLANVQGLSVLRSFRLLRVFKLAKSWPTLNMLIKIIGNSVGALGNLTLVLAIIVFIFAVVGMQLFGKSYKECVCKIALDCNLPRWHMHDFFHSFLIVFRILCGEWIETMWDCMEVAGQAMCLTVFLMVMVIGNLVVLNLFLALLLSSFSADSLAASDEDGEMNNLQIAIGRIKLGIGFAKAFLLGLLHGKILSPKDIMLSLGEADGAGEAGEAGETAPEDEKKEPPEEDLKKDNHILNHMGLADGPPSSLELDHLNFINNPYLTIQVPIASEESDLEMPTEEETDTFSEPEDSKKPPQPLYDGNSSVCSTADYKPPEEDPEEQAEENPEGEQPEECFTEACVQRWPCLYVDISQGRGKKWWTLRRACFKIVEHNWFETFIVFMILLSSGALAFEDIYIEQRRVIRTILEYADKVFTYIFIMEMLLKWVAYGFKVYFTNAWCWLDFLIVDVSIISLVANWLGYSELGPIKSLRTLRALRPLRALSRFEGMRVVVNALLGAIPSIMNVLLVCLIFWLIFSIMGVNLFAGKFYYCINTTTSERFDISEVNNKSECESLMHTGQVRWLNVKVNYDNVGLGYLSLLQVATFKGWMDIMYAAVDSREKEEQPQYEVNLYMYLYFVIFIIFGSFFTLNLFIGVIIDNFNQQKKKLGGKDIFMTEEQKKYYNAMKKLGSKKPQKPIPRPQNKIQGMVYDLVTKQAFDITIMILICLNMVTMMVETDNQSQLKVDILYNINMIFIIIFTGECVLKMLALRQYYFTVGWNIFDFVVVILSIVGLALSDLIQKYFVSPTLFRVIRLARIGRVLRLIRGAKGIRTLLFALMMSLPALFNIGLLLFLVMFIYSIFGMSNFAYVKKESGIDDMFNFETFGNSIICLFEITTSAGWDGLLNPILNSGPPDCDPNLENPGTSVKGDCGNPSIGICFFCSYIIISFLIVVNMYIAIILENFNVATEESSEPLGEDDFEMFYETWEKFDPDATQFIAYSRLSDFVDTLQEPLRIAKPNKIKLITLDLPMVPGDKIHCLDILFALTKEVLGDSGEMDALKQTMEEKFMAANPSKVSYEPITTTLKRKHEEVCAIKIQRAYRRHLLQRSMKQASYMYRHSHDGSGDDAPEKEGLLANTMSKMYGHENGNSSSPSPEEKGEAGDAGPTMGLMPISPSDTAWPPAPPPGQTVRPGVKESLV
hNav1.3, sequence (Q9NY46 whole entry): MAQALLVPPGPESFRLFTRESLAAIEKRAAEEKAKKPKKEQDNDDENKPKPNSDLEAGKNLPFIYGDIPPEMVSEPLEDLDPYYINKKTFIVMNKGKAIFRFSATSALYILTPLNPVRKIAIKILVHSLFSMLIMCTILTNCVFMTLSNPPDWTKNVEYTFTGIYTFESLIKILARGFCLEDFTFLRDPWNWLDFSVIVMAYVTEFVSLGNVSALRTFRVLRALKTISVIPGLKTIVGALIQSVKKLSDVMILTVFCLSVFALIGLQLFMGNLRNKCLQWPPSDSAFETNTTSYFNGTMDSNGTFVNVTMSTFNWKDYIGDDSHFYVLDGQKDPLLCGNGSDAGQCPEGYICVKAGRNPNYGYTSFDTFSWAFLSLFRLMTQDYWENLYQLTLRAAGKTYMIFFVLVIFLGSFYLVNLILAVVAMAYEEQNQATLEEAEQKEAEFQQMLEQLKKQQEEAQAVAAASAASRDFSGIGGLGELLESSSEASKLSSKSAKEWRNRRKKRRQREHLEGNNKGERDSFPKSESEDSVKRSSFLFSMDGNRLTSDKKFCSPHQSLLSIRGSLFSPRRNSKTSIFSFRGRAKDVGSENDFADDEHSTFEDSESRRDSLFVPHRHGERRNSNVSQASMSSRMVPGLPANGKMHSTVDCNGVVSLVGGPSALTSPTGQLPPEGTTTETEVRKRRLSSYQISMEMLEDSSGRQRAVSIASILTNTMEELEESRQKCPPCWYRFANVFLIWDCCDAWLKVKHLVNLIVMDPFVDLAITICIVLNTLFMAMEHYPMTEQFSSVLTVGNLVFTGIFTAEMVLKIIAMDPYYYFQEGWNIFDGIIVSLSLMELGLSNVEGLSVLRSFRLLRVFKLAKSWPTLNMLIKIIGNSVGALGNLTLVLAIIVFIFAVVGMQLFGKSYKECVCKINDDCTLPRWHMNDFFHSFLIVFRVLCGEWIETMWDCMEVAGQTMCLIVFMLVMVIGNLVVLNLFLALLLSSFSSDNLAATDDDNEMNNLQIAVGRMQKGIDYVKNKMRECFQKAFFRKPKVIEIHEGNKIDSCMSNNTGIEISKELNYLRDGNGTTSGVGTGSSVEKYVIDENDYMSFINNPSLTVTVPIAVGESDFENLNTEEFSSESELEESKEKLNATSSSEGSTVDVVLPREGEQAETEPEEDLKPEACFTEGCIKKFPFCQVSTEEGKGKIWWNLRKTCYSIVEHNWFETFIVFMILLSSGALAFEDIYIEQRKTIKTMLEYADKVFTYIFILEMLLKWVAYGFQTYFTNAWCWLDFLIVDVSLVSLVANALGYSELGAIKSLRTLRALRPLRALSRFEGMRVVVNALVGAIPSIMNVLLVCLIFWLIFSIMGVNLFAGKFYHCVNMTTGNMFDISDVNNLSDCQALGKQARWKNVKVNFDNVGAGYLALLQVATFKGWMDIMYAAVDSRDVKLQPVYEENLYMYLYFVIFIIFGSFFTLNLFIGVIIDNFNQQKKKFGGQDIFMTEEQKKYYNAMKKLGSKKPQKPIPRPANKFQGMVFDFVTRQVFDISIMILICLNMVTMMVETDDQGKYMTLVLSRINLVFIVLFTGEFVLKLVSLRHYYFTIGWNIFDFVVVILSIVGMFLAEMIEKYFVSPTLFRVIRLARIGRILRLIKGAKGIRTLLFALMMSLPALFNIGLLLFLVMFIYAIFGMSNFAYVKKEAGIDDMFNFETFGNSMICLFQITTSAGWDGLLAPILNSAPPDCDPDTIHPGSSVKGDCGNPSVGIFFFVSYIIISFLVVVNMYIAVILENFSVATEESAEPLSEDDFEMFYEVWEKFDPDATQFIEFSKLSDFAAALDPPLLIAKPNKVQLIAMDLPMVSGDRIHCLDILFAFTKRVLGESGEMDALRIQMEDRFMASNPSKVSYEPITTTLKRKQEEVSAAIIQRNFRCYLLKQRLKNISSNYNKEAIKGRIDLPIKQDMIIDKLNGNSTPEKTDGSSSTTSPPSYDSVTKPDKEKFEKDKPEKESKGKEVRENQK

As to `CCCC[C@H](NC(=O)[C@H](Cc1ccc(O)cc1)NC(=O)[C@H](CCCCN)NC(=O)[C@H](CCCNC(=N)N)NC(=O)[C@@H]1CSSC[C@@H]2NC(=O)[C@H](C)NC(=O)[C@H](CCCNC(=N)N)NC(=O)[C@H](CCCCN)NC(=O)[C@H](CO)NC(=O)[C@H](CC(=O)O)NC(=O)[C@@H]3CSSC[C@H](NC(=O)[C@H](CCC(=O)O)NC(=O)[C@H](CC(C)C)NC(=O)CNC(=O)[C@H](CCC(=O)O)NC(=O)[C@H](CSSC[C@H](NC(=O)[C@@H](N)Cc4ccc(O)cc4)C(=O)N[C@@H](CCC(N)=O)C(=O)N[C@@H](CCCCN)C(=O)N[C@@H](Cc4c[nH]c5ccccc45)C(=O)N[C@@H](CCSC)C(=O)N[C@@H](Cc4c[nH]c5ccccc45)C(=O)N[C@@H]([C@@H](C)O)C(=O)N3)NC2=O)C(=O)N[C@@H](CCCCN)C(=O)N[C@@H](CC(C)C)C(=O)N[C@@H](Cc2c[nH]c3ccccc23)C(=O)N1)C(N)=O` [compound 239], the half-maximal inhibitory concentration (IC50) (in general, the concentration that inhibits the measured activity by half) is 4000 nM in assay [1]; > 5000 nM in assay [2]; > 5000 nM in assay [3]; 79 nM in assay [4]; 6.2 nM in assay [5]; 9770 nM in assay [6]. Further, in assay [7], the IC50 was 786 nM.
For the molecule `CC[C@H](C)[C@H](NC(=O)[C@H](Cc1ccc(O)cc1)NC(=O)[C@H](CCCCN)NC(=O)[C@H](CCCNC(=N)N)NC(=O)[C@@H]1CSSC[C@@H]2NC(=O)[C@H](C)NC(=O)[C@H](CCCNC(=N)N)NC(=O)[C@H](CCCCN)NC(=O)[C@H](CO)NC(=O)[C@H](CC(=O)O)NC(=O)[C@@H]3CSSC[C@H](NC(=O)[C@H](CCC(=O)O)NC(=O)[C@H](CC(C)C)NC(=O)CNC(=O)[C@H](CCC(=O)O)NC(=O)[C@H](CSSC[C@H](NC(=O)[C@@H](N)CCC(=O)O)C(=O)N[C@@H](CCC(N)=O)C(=O)N[C@@H](CCCCN)C(=O)N[C@@H](Cc4c[nH]c5ccccc45)C(=O)N[C@@H](CCSC)C(=O)N[C@@H](Cc4c[nH]c5ccccc45)C(=O)N[C@@H]([C@@H](C)O)C(=O)N3)NC2=O)C(=O)N[C@@H](CCCCN)C(=O)N[C@@H](CC(C)C)C(=O)N[C@@H](Cc2c[nH]c3ccccc23)C(=O)N1)C(N)=O` [compound 277], the IC50 in assay [1] is > 5000 nM; in assay [2], 2000 nM; in assay [3] it was > 5000 nM; in assay [4] it was 210 nM; in assay [5] it was 5.5 nM; in assay [6], > 10000 nM. For the same molecule, the IC50 in assay [7] is 939 nM.
Consider `CC[C@H](C)[C@H](NC(=O)[C@@H](NC(=O)[C@H](CCCCN)NC(=O)[C@H](CCCNC(=N)N)NC(=O)[C@@H]1CSSC[C@@H]2NC(=O)[C@H](C)NC(=O)[C@H](CCCNC(=N)N)NC(=O)[C@H](CCCCN)NC(=O)[C@H](CO)NC(=O)[C@H](CC(=O)O)NC(=O)[C@@H]3CSSC[C@H](NC(=O)[C@H](CCC(=O)O)NC(=O)[C@H](CC(C)C)NC(=O)CNC(=O)[C@H](CCC(=O)O)NC(=O)[C@H](CSSC[C@H](NC(=O)[C@@H](N)Cc4ccc(O)cc4)C(=O)N[C@@H](CCC(N)=O)C(=O)N[C@@H](CCCCN)C(=O)N[C@@H](Cc4c[nH]c5ccccc45)C(=O)N[C@@H](CCSC)C(=O)N[C@@H](Cc4c[nH]c5ccccc45)C(=O)N[C@@H]([C@@H](C)O)C(=O)N3)NC2=O)C(=O)N[C@@H](CCCCN)C(=O)N[C@@H](CC(C)C)C(=O)N[C@@H](Cc2c[nH]c3ccccc23)C(=O)N1)C(C)C)C(N)=O` [compound 133], for which the IC50 in assay [1] stood at 4850 nM; in assay [2], 12000 nM; in assay [3] it was 4000 nM; in assay [4] it was 80 nM; in assay [5], 4.1 nM; in assay [6] it was 5500 nM. The IC50 in assay [7] is 1310 nM. Moreover, the values for the Nav1.4/Nav1.7 in assay [3] and in assay [7] were 51 and 320, respectively.
With `CC[C@H](C)[C@H](NC(=O)[C@H](Cc1ccc(O)cc1)NC(=O)[C@H](CCCCN)NC(=O)[C@H](CCCNC(=N)N)NC(=O)[C@@H]1CSSC[C@@H]2NC(=O)[C@H](C)NC(=O)[C@H](CCCNC(=N)N)NC(=O)[C@H](CCCCN)NC(=O)[C@H](CO)NC(=O)[C@H](CC(=O)O)NC(=O)[C@@H]3CSSC[C@H](NC(=O)[C@H](CCC(=O)O)NC(=O)[C@H](CC(C)C)NC(=O)CNC(=O)[C@H](CCC(=O)O)NC(=O)[C@H](CSSC[C@H](NC(=O)[C@@H](N)Cc4ccc(O)cc4)C(=O)N[C@@H](CCC(N)=O)C(=O)N[C@@H](CCCCN)C(=O)N[C@@H](Cc4ccccc4)C(=O)N[C@@H](CCSC)C(=O)N[C@@H](Cc4c[nH]c5ccccc45)C(=O)N[C@@H]([C@@H](C)O)C(=O)N3)NC2=O)C(=O)N[C@@H](CCCCN)C(=O)N[C@@H](CC(C)C)C(=O)N[C@@H](Cc2c[nH]c3ccccc23)C(=O)N1)C(N)=O` [compound 193], the IC50 in assay [1] is > 5000 nM; in assay [2], > 5000 nM; in assay [3], > 5000 nM; in assay [4], 160 nM and 230 nM; in assay [5], 4.6 nM; in assay [6] it was > 1000 nM. The IC50 in assay [7] was 1000 nM.
On to `CC[C@H](C)[C@H](NC(=O)[C@@H](NC(=O)[C@H](CCCCN)NC(=O)[C@H](CCCNC(=N)N)NC(=O)[C@@H]1CSSC[C@@H]2NC(=O)[C@H](C)NC(=O)[C@H](CCCNC(=N)N)NC(=O)[C@H](CCCCN)NC(=O)[C@H](CO)NC(=O)[C@H](CC(=O)O)NC(=O)[C@@H]3CSSC[C@H](NC(=O)CNC(=O)[C@H](CC(C)C)NC(=O)CNC(=O)[C@H](CCC(=O)O)NC(=O)[C@H](CSSC[C@H](NC(=O)[C@@H](N)Cc4ccc(O)cc4)C(=O)N[C@@H](CCC(N)=O)C(=O)N[C@@H](CCCCN)C(=O)N[C@@H](Cc4c[nH]c5ccccc45)C(=O)N[C@@H](CCSC)C(=O)N[C@@H](Cc4c[nH]c5ccccc45)C(=O)N[C@@H]([C@@H](C)O)C(=O)N3)NC2=O)C(=O)N[C@@H](CCCCN)C(=O)N[C@@H](CC(C)C)C(=O)N[C@@H](Cc2c[nH]c3ccccc23)C(=O)N1)[C@@H](C)CC)C(N)=O` [compound 121], for which the IC50 worked out at 980 nM in assay [1]; 9800 nM in assay [2]; 1900 nM in assay [3]; 60 nM in assay [4]; 7.8 nM in assay [5]; 14100 nM in assay [6]. In addition, the IC50 in assay [7] amounted to 197 nM. The Nav1.4/Nav1.7 turned out to be 29 in assay [3] and 25 in assay [7].
In the case of `CC[C@H](C)[C@H](NC(=O)[C@H](Cc1ccc(O)cc1)NC(=O)[C@H](CCCCN)NC(=O)[C@H](CCCNC(=N)N)NC(=O)[C@@H]1CSSC[C@@H]2NC(=O)[C@H](C)NC(=O)[C@H](CCCNC(=N)N)NC(=O)[C@H](CCCCN)NC(=O)[C@H](CO)NC(=O)[C@H](CC(=O)O)NC(=O)[C@@H]3CSSC[C@H](NC(=O)[C@H](CCC(=O)O)NC(=O)[C@H](CC(C)C)NC(=O)CNC(=O)[C@H](CCC(=O)O)NC(=O)[C@H](CSSC[C@H](NC(=O)[C@@H](N)Cc4ccc(O)cc4)C(=O)N[C@@H](CCC(N)=O)C(=O)N[C@@H](CCCCN)C(=O)N[C@@H](Cc4c[nH]c5ccccc45)C(=O)N[C@@H](CCSC)C(=O)N[C@@H](Cc4c[nH]c5ccccc45)C(=O)N[C@@H]([C@@H](C)O)C(=O)N3)NC2=O)C(=O)N[C@@H](CCCCN)C(=O)N[C@@H](CC(C)C)C(=O)N[C@@H](Cc2cccc3ccccc23)C(=O)N1)C(N)=O` [compound 218], the IC50 in assay [1] is > 7000 nM; in assay [2] it was > 7000 nM; in assay [3], > 7000 nM; in assay [4], 300 nM; in assay [5], 12 nM; in assay [6], 10000 nM. Also, the IC50 in assay [7] is 5210 nM.
For `CCCC[C@@H]1NC(=O)[C@H](Cc2c[nH]c3ccccc23)NC(=O)[C@H](CCCCN)NC(=O)[C@H](CCC(N)=O)NC(=O)[C@@H](NC(=O)[C@@H](N)Cc2ccc(O)cc2)CSSC[C@@H]2NC(=O)[C@@H]3CSSC[C@@H](C(=O)N[C@@H](CCCNC(=N)N)C(=O)N[C@@H](CCCCN)C(=O)N[C@H](C(=O)N[C@H](C(N)=O)[C@@H](C)CC)[C@@H](C)CC)NC(=O)[C@H](Cc4c[nH]c5ccccc45)NC(=O)[C@H](CC(C)C)NC(=O)[C@H](CCCCN)NC(=O)[C@H](CSSC[C@H](NC(=O)[C@H]([C@@H](C)O)NC(=O)[C@H](Cc4c[nH]c5ccccc45)NC1=O)C(=O)N[C@@H](CC(=O)O)C(=O)N[C@@H](CO)C(=O)N[C@@H](CCCCN)C(=O)N[C@@H](CCCNC(=N)N)C(=O)N[C@@H](C)C(=O)N3)NC(=O)[C@H](CCCNC(=N)N)NC(=O)[C@H](CC(C)C)NC(=O)CNC(=O)[C@H](CCC(=O)O)NC2=O` [compound 272], the IC50 was > 5000 nM in assay [1]; > 5000 nM in assay [2]; > 5000 nM in assay [3]; > 5000 nM in assay [4]; 0.586 nM in assay [5].
For the molecule `CC[C@H](C)[C@H](NC(=O)[C@@H](NC(=O)[C@H](CCCCN)NC(=O)[C@H](CCCNC(=N)N)NC(=O)[C@@H]1CSSC[C@@H]2NC(=O)[C@H](C)NC(=O)[C@H](CCCNC(=N)N)NC(=O)[C@H](CCCCN)NC(=O)[C@H](CO)NC(=O)[C@H](CC(=O)O)NC(=O)[C@@H]3CSSC[C@H](NC(=O)[C@H](CCC(=O)O)NC(=O)[C@H](CC(C)C)NC(=O)CNC(=O)[C@H](CCC(=O)O)NC(=O)[C@H](CSSC[C@H](NC(=O)[C@@H](N)Cc4ccc(O)cc4)C(=O)N[C@@H](CCC(N)=O)C(=O)N[C@@H](CCCCN)C(=O)N[C@@H](Cc4c[nH]c5ccccc45)C(=O)N[C@@H](CCSC)C(=O)N[C@@H](Cc4c[nH]c5ccccc45)C(=O)N[C@@H]([C@@H](C)O)C(=O)N3)NC2=O)C(=O)N[C@@H](CCCCN)C(=O)N[C@@H](CC(C)C)C(=O)N[C@@H](Cc2c[nH]c3ccccc23)C(=O)N1)[C@@H](C)CC)C(N)=O` [compound 63], the IC50 in assay [1] was > 5000 nM; in assay [2] it was 9800 nM; in assay [3] it was > 5000 nM; in assay [4], 360 nM; in assay [5], 7 nM; in assay [6], 9330 nM. Also, the Nav1.4/Nav1.7 in assay [3] was 14.
